Measured values as given in PubChem BioAssay AID434987 (Southern Research Specialized Biocontainment Screening …, 2010).
pIC50: −log10 of the molar value. Active and inactive are the calls of the source. How the calls were made is not given here.

System: M. tuberculosis H37Rv growth inhibition with meropenem
Experiment: dose response, H37Rv, with and without meropenem (AID 434987);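 further: growth over 7 days at 37 °C before Alamar Blue read on day 9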
[1] = M. tuberculosis H37Rv growth inhibition, measured here: IC50 without meropenem
[2] = M. tuberculosis H37Rv growth inhibition, measured here: IC90 without meropenem
[3] = measured here: IC90 with meropenem

Row | SMILES | IC50 | pIC50 [1] | IC90 [2] [µM] | IC90 [3] [µM] | pIC50
1 | CCOC(=O)c1c(C)oc2c1c(CN1CCN(C(=O)OCC)CC1)c(O)c1ccccc12 | 51.5 µM (inactive) | 4.29 | > 100 | > 100 | –
2 | Cn1c(/C=C/c2ccc(Cl)cc2)nc2ccccc2c1=O | 52.1 µM (inactive) | < 4.00 | > 100 | > 100 | –
3 | CNc1ccccc1NC(=O)C1CCCN1C(=O)OCc1ccccc1 (configuration not stated) | > 100 µM (inactive) | < 4.00 | > 100 | > 100 | –
4 | O=c1oc(-c2cccs2)nc2sc3c(c12)CCCC3 | – | < 4.00 | > 100 | 29.7 | 4.65
5 | CCCCNC(=O)c1onc(CSc2ccccc2C)c1C(=O)O | 45.3 µM (inactive) | 4.09 | > 100 | 50.6 | –
6 | CC(O)/C=C/c1ccc2ccccc2n1 (configuration not stated) | 27.7 µM (inactive) | 4.27 | > 100 | 57.5 | –
7 | CCN(CC(=O)Nc1ccc2c(c1)OCCO2)C(=O)c1ccc([N+](=O)[O-])s1 | 23.6 µM (inactive) | 4.57 | 50.7 | 26 | –
8 | c1ccc(CSc2nnc(-c3ccco3)o2)cc1 | > 100 µM (inactive) | < 4.00 | > 100 | > 100 | –
9 | Cc1ccc(C(=O)Nc2ccc(N3CCN(C(=O)c4cccs4)CC3)cc2)c(Cl)c1 | > 100 µM (inactive) | < 4.00 | > 100 | > 100 | –
10 | CCOC(=O)c1c(NC(=S)NC(=O)c2ccc(Cn3cc(Cl)cn3)o2)sc2c1CCC(C)C2 (configuration not stated) | > 100 µM (inactive) | < 4.00 | > 100 | > 100 | –
11 | O=C(Nc1ccc(F)cc1)c1sc2cc(C(F)(F)F)cnc2c1-c1cccs1 | > 100 µM (inactive) | < 4.00 | > 100 | > 100 | –
12 | CC(C)(C)c1ccc(C(=O)Oc2ccc3c(c2)OCC3=O)cc1 | – | < 4.00 | > 100 | 29.4 | 5.06
13 | CCCC(=O)Nc1ccc(NC(=S)NC(=O)c2cccs2)cc1 | > 100 µM (inactive) | < 4.00 | > 100 | > 100 | –
14 | CCCC(C(=O)N1CCOCC1)N1C(=O)C2C3C=CC(C3)C2C1=O (configuration not stated) | > 100 µM (inactive) | < 4.00 | > 100 | > 100 | –
15 | O=C(CCNc1ccc(F)cc1)c1cccc([N+](=O)[O-])c1 | > 100 µM (inactive) | < 4.00 | > 100 | > 100 | –
16 | Cc1nc(S/C(=C\c2ccc(OCc3ccccc3Cl)cc2)C(=O)O)n[nH]1 | > 100 µM (inactive) | < 4.00 | > 100 | > 100 | –
17 | CN1CCN(c2ccccc2NC(=O)c2ccc(-c3ccc(Cl)c(Cl)c3)o2)CC1 | – | 4.50 | > 100 | > 100 | 5.13
18 | C/C(=N\NC(=O)c1cc(Br)ccc1O)c1ccccn1 | – | 4.02 | > 100 | > 100 | 5.41
19 | O=C1C=C2C=C[C@@H]3CC2(O1)[C@H]1CCCCN31 | 78.1 µM (inactive) | < 4.00 | > 100 | > 100 | –
20 | CC(C)(C)c1ccc(OCc2ccc(C(=O)N/N=C3\CC4CC=CC34)cc2)cc1 (configuration not stated) | 26.2 µM (inactive) | 4.51 | 46.5 | 45.3 | –

Row | SMILES | IC50 | pIC50 [1] | IC90 [2] [µM] | IC90 [3] [µM] | pIC50
21 | CN(C)CCCN(C(=O)/C=C/c1cccs1)c1nc2ccc(F)cc2s1 | 45.2 µM (inactive) | 4.34 | 49.2 | 48.4 | –
22 | O=C(/C=C/c1ccccc1[N+](=O)[O-])c1ccc(F)cc1 | – | 4.03 | > 100 | > 100 | 4.70
23 | Cc1cc(C)c(-c2c(O)c3ccccc3n(C)c2=O)c(C)c1 | – | 4.31 | > 100 | 42.2 | 5.03
24 | CN(C)S(=O)(=O)c1ccc(C(=O)/C=C/c2cccnc2)cc1 | 5.92 µM (inactive) | 5.03 | 13.9 | 12.1 | –
25 | COc1ccccc1C(c1c(N)n(C)c(=O)n(C)c1=O)C(C)[N+](=O)[O-] (configuration not stated) | 11.2 µM (inactive) | 4.67 | 28.9 | 18 | –
26 | CCn1nc(C)c([N+](=O)[O-])c1C(=O)NNC(=O)c1ccccc1Cl | > 100 µM (inactive) | < 4.00 | > 100 | > 100 | –
27 | COc1cc(NC(=S)NC(=O)c2ccco2)ccc1NC(=O)C(C)C | 99.6 µM (inactive) | < 4.00 | > 100 | > 100 | –
28 | Cc1cccc(NC(=O)Cn2c(=O)n(Cc3ccccc3)c(=O)c3c(C)c(C)sc32)c1 | > 100 µM (inactive) | < 4.00 | > 100 | > 100 | –
29 | CN(C)c1ccc(/C=C/c2nc3ccccc3s2)cc1 | – | < 4.00 | > 100 | > 100 | 5.05
30 | COc1ccc(Cl)cc1NC(=O)CN(C)C(=O)c1ccc(N2CCCCCC2)c([N+](=O)[O-])c1 | > 100 µM (inactive) | < 4.00 | > 100 | > 100 | –
31 | Cc1cc(C2C(=O)c3ccccc3C2=O)c(C)c(C)c1C | – | 4.47 | > 100 | 16.4 | 5.42
32 | COc1ccc(/C=C2\N=C(SC)N(c3ccccc3OC)C2=O)cc1 | – | < 4.00 | > 100 | > 25 | 4.74
33 | S=C(Nc1ccccc1Cl)N1CCCC(c2ccccc2)=N1 | > 100 µM (inactive) | 4.16 | 87.8 | > 100 | –
34 | O=C(NN1C(=O)C2C(C1=O)C1C=CC2C12CC2)c1ccncc1 (configuration not stated) | – | 4.25 | > 100 | 13.9 | 4.91
35 | CC1CCN(CCOc2ccc(OCc3ccccc3)cc2)CC1 | 74 µM (inactive) | 4.01 | > 100 | > 100 | –
36 | O=C(NCC(c1ccco1)N1CCc2ccccc21)c1ccc([N+](=O)[O-])cc1 (configuration not stated) | > 100 µM (inactive) | < 4.00 | > 100 | > 100 | –
37 | C(=N\n1cnnc1)/c1ccc(-c2ccccc2)cc1 | > 100 µM (inactive) | < 4.00 | > 100 | > 100 | –
38 | COc1ccc2[nH]c3c(c2c1)CCN=C3C | > 100 µM (inactive) | < 4.00 | > 100 | > 100 | –
39 | CNC(=O)Nc1cccc(-c2cc(-c3c(Cl)cccc3Cl)no2)c1 | > 100 µM (inactive) | < 4.00 | > 100 | > 100 | –
40 | C/C(=N/NC(=O)c1cccs1)c1ccc(NC(=O)COc2ccc(Cl)cc2)cc1 | > 100 µM (inactive) | < 4.00 | > 100 | > 100 | –

Row | SMILES | IC50 | pIC50 [1] | IC90 [2] [µM] | IC90 [3] [µM] | pIC50
41 | CC(=O)c1ccc(NC(=S)Nc2ccc(N3CCOCC3)cc2)cc1 | – | < 4.00 | > 100 | > 100 | 4.67
42 | CC12CCC(C/C1=N/NC(=O)Nc1ccccc1)C2(C)C (configuration not stated) | – | < 4.00 | > 100 | > 50 | 4.83
43 | O=C(CCCCCN1C(=O)c2cccc([N+](=O)[O-])c2C1=O)Nc1ccccc1F | – | < 4.00 | > 100 | 44.1 | 4.99
44 | CC(=O)COc1ccc2c3c(c(=O)oc2c1C)CCCCC3 | > 100 µM (inactive) | < 4.00 | > 100 | > 100 | –
45 | CCCn1nc2cc(C(=O)NCCCCc3ccccc3)ccc2c1OCC | 90.1 µM (inactive) | 4.03 | > 100 | > 100 | –
46 | Cc1c2c(nc3c(C(=O)NC4CCCC4)cnn13)CCCC2 | 73.4 µM (inactive) | < 4.00 | > 100 | > 100 | –
47 | COc1ccc(Nc2cc(C(=O)NCc3ccco3)c3ccccc3n2)c(OC)c1 | > 100 µM (inactive) | < 4.00 | > 100 | > 100 | –
48 | CCOc1ccc(-c2nc(-c3ccccc3C)no2)cc1 | > 100 µM (inactive) | < 4.00 | > 100 | > 100 | –
49 | CCOC(=O)CSc1nnc(NC(=O)c2cccc(S(=O)(=O)N3CCCCC3)c2)s1 | 23.8 µM (inactive) | 4.39 | > 100 | > 100 | –
50 | CC(C)(C)Nc1nc(Nc2ccc([N+](=O)[O-])cc2)nc(NC(C)(C)C)n1 | > 100 µM (inactive) | < 4.00 | > 100 | > 100 | –
51 | O=c1[nH]c(CSc2nnc3ccccn23)nc2ccccc12 | > 100 µM (inactive) | < 4.00 | > 100 | > 100 | –
52 | CCC1Nc2ncnc(N3CCN(c4ccccc4)CC3)c2N(Cc2ccc(Br)cc2)C1=O (configuration not stated) | > 100 µM (inactive) | < 4.00 | > 100 | > 100 | –
53 | NC(=O)CN1C(=O)C(O)(CC(=O)/C=C\C=C\c2ccccc2)c2ccccc21 (configuration not stated) | > 100 µM (inactive) | < 4.00 | > 100 | > 100 | –
54 | CC(C)N1CCc2c(sc(NC(=O)c3cc(-c4cccs4)nc4ccccc34)c2C(N)=O)C1 | 13.7 µM (inactive) | 4.61 | > 100 | > 100 | –
55 | COCCNC(=O)c1ccc(NC(=O)C2(c3ccccc3)CCCC2)cc1 | – | 4.48 | > 100 | > 100 | 5.09
56 | Cc1ccc(C2=NN(C(=O)CN3C(=O)c4ccccc4S3(=O)=O)C(c3ccco3)C2)cc1 (configuration not stated) | > 100 µM (inactive) | < 4.00 | > 100 | > 100 | –
57 | Cc1ccc(NC(=O)CCS(=O)(=O)c2cccc3nonc23)cc1 | 16.8 µM (inactive) | 4.51 | > 100 | > 100 | –
58 | CN(C)/N=C/c1ccc(/C=N/NC(N)=S)o1 | – | 4.04 | > 100 | 43.3 | 4.82
